Where two headings read alike, the source gives them in different places.
Experiments:
[1] = Pharmacokinetics of paeoniflorin in pseudo-germ-free (PGF) rats; assay type: in vivo; conditions: SD, rat, oral paeoniflorin 20 mg/kg, plasma analyte = labelled substance; for AUC(0-t) / Cmax: plasma, po, 20 mg/kg
Protocol: Chromatography separation was performed using an XSS T3 column (3.5 μm, 2.1 mm × 100 mm, Waters, Milford, MA, United States) with the column temperature maintained at 40°C at a flow rate of 0.4 mL/min. […] The gradient was as follows: 25% eluent B for 2 min; 25–85% B from 2 to 4 min; 85–25% B from 4 to 5 min and held at 25% from 5 to 7 min. The autosampler temperature was set to 4°C. Mass spectrometry was carried out using multiple reaction monitoring mode (MRM). […] The nebulizing gas flow rate was 2.8 L/min, the drying gas flow rate was 10 L/min, and the heating gas flow rate was 10 L/min. […] The remaining fourteen SD rats were orally administered saline equivalently. Two days after administration, pharmacokinetic experiments were performed. […] Plasma samples were immediately stored at 4°C until analysis. Statistical analyses were conducted using two-way ANOVA and Student’s t-test with GraphPad Prism Version 5 (GraphPad Software, La Jolla, CA, United States). The data are expressed as the means ± standard deviation. […] DAS 3.0 was used to calculate the plasma pharmacokinetic parameters.

[2] = test system: rat intestinal microbial culture; test: Metabolism of paeoniflorin by intestinal bacteria in vitro; assay type: in vitro ADME; conditions: 24-h incubation
Protocol: The colon contents of six rats were pooled, and 5 g of the sample was transferred to a ziplock bag and then mixed thoroughly with anaerobic medium (100 mL). After mixing completely, the cultures were stored at 37°C and preincubated for 1 h. Then, 10 μL of paeoniflorin (100 mg/mL) was added to fresh rat intestinal microbial culture (990 μL) under anaerobic conditions of N2, with a final concentration of 1 mg/mL of paeoniflorin in the culture system ([Hattori et al., 1988]). The inactivated bacteria solution was used as a negative control. Cultures were incubated at 37°C for 0, 2, 6, 12, and 24 h, respectively. After terminated the reaction with 3 volumes of acetonitrile, samples were vortexed for 30 s and then centrifuged at 16,162 g for 5 min. A total of 100 μL of the supernatant were transferred to a centrifuge tube, centrifuged at 16,162 g for 5 min and filtered through a 0.45 μm microporous membrane. Finally, 5 μL of the filtrate solution was collected for analysis.

[3] = PGF rats (antibiotic pretreated)

**Q.** Which AUC(0-t) ([1]; PGF rats (antibiotic pretreated), read-out: AUC (0-t)) does the source give for `C[C@@]12C[C@@]3(O)O[C@@H](O1)[C@]1(COC(=O)c4ccccc4)[C@H]3C[C@@]12O[C@@H]1O[C@H](CO)[C@@H](O)[C@H](O)[C@H]1O` [Paeoniflorin] here?
**A.** The AUC(0-t) was 296 ± 100 ng·h/mL.

**Q.** And the Cmax ([1]; PGF rats (antibiotic pretreated), read-out: Cmax)?
**A.** The Cmax was 134 ± 48.5 ng/mL.

**Q.** And the AUC(0-t) ([1]; PGF rats, Figures 3B, 3C, read-out: AUC(0-t) (unit inferred))?
**A.** Its AUC(0-t) is 296 ng·h/mL.

**Q.** And the Cmax ([1]; PGF rats, Figures 3B, 3C, read-out: Cmax (unit inferred))?
**A.** Its Cmax is 134 ng/mL.

**Q.** And the AUC(0-inf) [1, 3]?
**A.** The AUC(0-inf) was 312 ± 123 ng·h/mL.

**Q.** And the Tmax [1, 3]?
**A.** Its Tmax is 0.388 ± 0.136 h.

**Q.** What about the half-life ([1]; PGF rats (antibiotic pretreated), read-out: t1/2z (converted)) of the same molecule?
**A.** Its half-life is 2.58 ± 1.61 h.

**Q.** What about the “transformation of paeoniflorin in intestinal bacteria” value ([2]; 37°C, anaerobic, 1 mg/mL paeoniflorin, normal gut bacteria) of the same molecule?
**A.** The value was “completely transformed”.

**Q.** And the “metabolism of paeoniflorin in inactivated gut bacteria (control group)” value ([2]; inactivated bacteria solution)?
**A.** Its value is “not metabolized”.
